How the values were obtained:
Assay in all cases: relative viability (nuclei count vs DMSO), 5 days (fraction); higher = more cells survive
[1] = test system: NCI-H1651
How it was run: (§1)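 Each reported value is a median over duplicate plates. It expresses relative viability: treated-well nuclei count divided by vehicle-well nuclei count. Lung cancer cell lines in 1536-well plates were dosed by pin tool a day after seeding, alone with one drug or with a fixed anchor-drug dose plus five library-drug doses (not always all listed) in √10 steps, and nuclei were counted after 5 days.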

[2] = test system: HARA
How it was run: as §1

[3] = test system: NCI-H1755
How it was run: as §1

[4] = test system: NCI-H2085
How it was run: as §1

[5] = test system: NCI-H3122
How it was run: as §1

[6] = test system: NCI-H2087
How it was run: as §1

[7] = test system: HCC-78
How it was run: as §1

[8] = test system: LU99A
How it was run: as §1

[9] = test system: PC-3 [JPC-3]
How it was run: as §1

[10] = test system: HCC-366
How it was run: as §1

[11] = test system: 201T
How it was run: as §1

[12] = test system: NCI-H358
How it was run: as §1

[13] = test system: NCI-H1793
How it was run: as §1

[14] = test system: NCI-H522
How it was run: as §1

[15] = test system: NCI-H322M
How it was run: as §1

[16] = test system: NCI-H460
How it was run: as §1

[17] = test system: NCI-H596
How it was run: as §1

[18] = test system: H3255
How it was run: as §1

[19] = test system: NCI-H650
How it was run: as §1

[20] = test system: NCI-H23
How it was run: as §1

Cc1cn(-c2cc(NC(=O)c3ccc(C)c(Nc4nccc(-c5cccnc5)n4)c3)cc(C(F)(F)F)c2)cn1 [Nilotinib] + NC(=O)Nc1cc(-c2cccc(F)c2)sc1C(=O)N[C@H]1CCCNC1 [AZD7762] (partner 0.2 µM)
relative viability ([1]; first compound 0.001 µM): 0.444 | relative viability ([1]; first compound 0.003162 µM): 0.394 | relative viability ([1]; first compound 0.01 µM): 0.572 | relative viability ([1]; first compound 0.03162 µM): 0.401 | relative viability ([1]; first compound 0.1 µM): 0.239 | relative viability ([2]; first compound 0.001 µM): 0.329 | relative viability ([2]; first compound 0.003162 µM): 0.208 | relative viability ([2]; first compound 0.01 µM): 0.536 | relative viability ([2]; first compound 0.03162 µM): 0.197 | relative viability ([2]; first compound 0.1 µM): 0.245 | relative viability ([3]; first compound 0.001 µM): 0.412 | relative viability ([3]; first compound 0.003162 µM): 0.499 | relative viability ([3]; first compound 0.01 µM): 0.399 | relative viability ([3]; first compound 0.03162 µM): 0.352 | relative viability ([3]; first compound 0.1 µM): 0.4 | relative viability ([4]; first compound 0.001 µM): 0.978 | relative viability ([4]; first compound 0.003162 µM): 0.942 | relative viability ([4]; first compound 0.01 µM): 1.03 | relative viability ([4]; first compound 0.03162 µM): 0.793 | relative viability ([4]; first compound 0.1 µM): 0.527 | relative viability ([5]; first compound 0.001 µM): 0.965 | relative viability ([5]; first compound 0.003162 µM): 1.24 | relative viability ([5]; first compound 0.01 µM): 1.37 | relative viability ([5]; first compound 0.03162 µM): 0.967 | relative viability ([5]; first compound 0.1 µM): 0.382 | relative viability ([6]; first compound 0.001 µM): 0.828 | relative viability ([6]; first compound 0.003162 µM): 1.58 | relative viability ([6]; first compound 0.01 µM): 1.98 | relative viability ([6]; first compound 0.03162 µM): 0.86 | relative viability ([6]; first compound 0.1 µM): 0.893 | relative viability ([7]; first compound 0.001 µM): 0.668 | relative viability ([7]; first compound 0.003162 µM): 0.442 | relative viability ([7]; first compound 0.01 µM): 0.725 | relative viability ([7]; first compound 0.03162 µM): 0.58 | relative viability ([7]; first compound 0.1 µM): 0.628 | relative viability ([8]; first compound 0.001 µM): 0.247 | relative viability ([8]; first compound 0.003162 µM): 0.513 | relative viability ([8]; first compound 0.01 µM): 0.498 | relative viability ([8]; first compound 0.03162 µM): 0.33 | relative viability ([8]; first compound 0.1 µM): 0.199 | relative viability ([9]; first compound 0.001 µM): 0.8 | relative viability ([9]; first compound 0.01 µM): 0.737 | relative viability ([9]; first compound 0.03162 µM): 0.749 | relative viability ([9]; first compound 0.1 µM): 0.527 | relative viability ([10]; first compound 0.001 µM): 0.18 | relative viability ([10]; first compound 0.003162 µM): 0.231 | relative viability ([10]; first compound 0.01 µM): 0.264 | relative viability ([10]; first compound 0.03162 µM): 0.204 | relative viability ([10]; first compound 0.1 µM): 0.115 | relative viability ([11]; first compound 0.001 µM): 0.568 | relative viability ([11]; first compound 0.003162 µM): 0.546 | relative viability ([11]; first compound 0.01 µM): 0.563 | relative viability ([11]; first compound 0.03162 µM): 0.424 | relative viability ([11]; first compound 0.1 µM): 0.317 | relative viability ([12]; first compound 0.001 µM): 0.458 | relative viability ([12]; first compound 0.003162 µM): 0.539 | relative viability ([12]; first compound 0.01 µM): 0.556 | relative viability ([12]; first compound 0.03162 µM): 0.459 | relative viability ([12]; first compound 0.1 µM): 0.523 | relative viability ([13]; first compound 0.001 µM): 0.388 | relative viability ([13]; first compound 0.003162 µM): 0.318 | relative viability ([13]; first compound 0.01 µM): 0.303 | relative viability ([13]; first compound 0.03162 µM): 0.243 | relative viability ([13]; first compound 0.1 µM): 0.146 | relative viability ([14]; first compound 0.01 µM): 0.861 | relative viability ([14]; first compound 0.03162 µM): 0.767 | relative viability ([14]; first compound 0.1 µM): 0.649 | relative viability ([15]; first compound 0.001 µM): 0.597 | relative viability ([15]; first compound 0.003162 µM): 0.525 | relative viability ([15]; first compound 0.01 µM): 0.518 | relative viability ([15]; first compound 0.03162 µM): 0.41 | relative viability ([15]; first compound 0.1 µM): 0.407 | relative viability ([16]; first compound 0.001 µM): 0.549 | relative viability ([16]; first compound 0.003162 µM): 0.603 | relative viability ([16]; first compound 0.01 µM): 0.389 | relative viability ([16]; first compound 0.03162 µM): 0.427 | relative viability ([16]; first compound 0.1 µM): 0.41 | relative viability ([17]; first compound 0.001 µM): 1.11 | relative viability ([17]; first compound 0.003162 µM): 1.02 | relative viability ([17]; first compound 0.01 µM): 1.11 | relative viability ([17]; first compound 0.03162 µM): 1.13 | relative viability ([17]; first compound 0.1 µM): 1.01 | relative viability ([18]; first compound 0.001 µM): 0.827 | relative viability ([18]; first compound 0.003162 µM): 0.65 | relative viability ([18]; first compound 0.01 µM): 0.908 | relative viability ([18]; first compound 0.03162 µM): 0.811 | relative viability ([18]; first compound 0.1 µM): 0.733 | relative viability ([19]; first compound 0.001 µM): 1.08 | relative viability ([19]; first compound 0.003162 µM): 1.01 | relative viability ([19]; first compound 0.01 µM): 0.914 | relative viability ([19]; first compound 0.03162 µM): 0.918 | relative viability ([19]; first compound 0.1 µM): 0.721 | relative viability ([20]; first compound 0.001 µM): 0.186 | relative viability ([20]; first compound 0.003162 µM): 0.221 | relative viability ([20]; first compound 0.01 µM): 0.154 | relative viability ([20]; first compound 0.03162 µM): 0.152 | relative viability ([20]; first compound 0.1 µM): 0.122

— the supplement of paper PMC10307832
